Measurements: PMC12672436 (Frontiers in Pharmacology, 2025)
pIC50: −log10 of the molar value. Read-outs that look alike come from different tables or passages of the source.

Assays:
human DAT = target: T1, human DAT (Homo sapiens, UniProt Q01959); test: Uptake inhibition assay, DAT; assay type: cell-based; conditions: HEK293 cells expressing human DAT, 0.05 µM [3H]MPP+; for pIC50: given as a range
T1 construct: expressed in transfected cells

human NET = target: T2, human NET (Homo sapiens, UniProt P23975); test: cell-based; assay type: cell-based
T2 construct: expressed in transfected cells
T2 sequence (P23975 whole entry): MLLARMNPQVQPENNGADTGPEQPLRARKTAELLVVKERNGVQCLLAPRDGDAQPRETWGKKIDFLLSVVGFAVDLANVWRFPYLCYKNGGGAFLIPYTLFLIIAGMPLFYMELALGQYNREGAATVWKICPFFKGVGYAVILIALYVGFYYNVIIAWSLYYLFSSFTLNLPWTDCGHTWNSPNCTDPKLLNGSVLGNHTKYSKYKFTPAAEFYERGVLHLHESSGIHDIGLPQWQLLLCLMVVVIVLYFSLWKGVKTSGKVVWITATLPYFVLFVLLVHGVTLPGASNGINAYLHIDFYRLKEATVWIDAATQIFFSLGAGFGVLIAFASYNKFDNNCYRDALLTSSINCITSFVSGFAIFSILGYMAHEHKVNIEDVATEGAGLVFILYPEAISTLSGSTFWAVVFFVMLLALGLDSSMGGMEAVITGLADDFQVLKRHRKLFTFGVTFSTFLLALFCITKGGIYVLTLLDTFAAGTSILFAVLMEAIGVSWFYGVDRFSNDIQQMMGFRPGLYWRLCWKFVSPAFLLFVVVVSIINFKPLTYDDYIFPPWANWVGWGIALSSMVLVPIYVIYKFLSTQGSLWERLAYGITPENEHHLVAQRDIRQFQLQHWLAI

human OCT1 [1] = target: T3, human OCT1 (Homo sapiens, UniProt O15245); test: cell-based
T3 sequence (O15245 1-554): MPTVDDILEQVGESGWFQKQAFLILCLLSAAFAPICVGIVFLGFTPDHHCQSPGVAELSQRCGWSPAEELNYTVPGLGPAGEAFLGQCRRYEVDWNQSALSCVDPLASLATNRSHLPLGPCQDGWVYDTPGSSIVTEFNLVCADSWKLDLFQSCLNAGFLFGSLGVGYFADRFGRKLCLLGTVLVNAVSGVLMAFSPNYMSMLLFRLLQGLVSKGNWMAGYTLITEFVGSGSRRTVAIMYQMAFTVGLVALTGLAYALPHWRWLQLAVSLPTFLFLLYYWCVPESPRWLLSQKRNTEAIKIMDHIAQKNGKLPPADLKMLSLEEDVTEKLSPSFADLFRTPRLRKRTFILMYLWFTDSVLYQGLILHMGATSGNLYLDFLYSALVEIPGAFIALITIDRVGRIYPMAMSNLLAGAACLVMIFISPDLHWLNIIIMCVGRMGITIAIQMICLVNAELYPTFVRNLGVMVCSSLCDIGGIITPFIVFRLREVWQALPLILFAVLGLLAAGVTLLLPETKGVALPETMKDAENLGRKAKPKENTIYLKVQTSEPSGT
Protocol: (§1) Cells were cultured in Dulbecco’s modified Eagle’s medium (DMEM) supplemented with 10% fetal bovine serum and 250 μg/mL geneticin to maintain selection pressure.
(§2) HEK293 cells heterologously expressing the respective transporters were seeded onto poly-D-lysine (PDL)-coated 96-well plates at a density of ∼36,000 cells per well, 1 day before experiments. For the experiment, medium was replaced with 200 µL Krebs HEPES buffer (KHB; 120 mM NaCl, 3 mM KCl, 2 mM CaCl2·2H2O, 2 mM MgCl2·6H2O, 20 mM D-glucose, pH 7.3). Test compounds were dissolved in Milli-Q water or dimethyl sulfoxide (DMSO) at 10–100 mM stock concentrations. Cells were preincubated for 5 min with the compound of interest (diluted in KHB to the indicated concentrations). The preincubation solution was then replaced with 50 µL/well of diluted compound together with tritiated substrate (DAT, OCT1, OCT2, OCT3: 0.05 μM [^3H]MPP^+; NET: 0.02 μM [^3H]MPP^+; SERT: 0.1 μM [^3H]5-HT) for 1 min (SERT) or 3 min (DAT, NET, OCT1– OCT3). After the incubation, uptake was terminated by rapidly washing cell with 200 μL KHB, followed by addition of 200 μL Ultima Gold™ XR scintillation cocktail (PerkinElmer, MA, United States) to each well. […] Uptake in the absence of inhibitor was defined as 100%, while uptake in presence of a reference inhibitor (hDAT, hNET: 50 μM GBR12909; hSERT: 3 μM paroxetine; OCT1–OCT3: 100 µM D22) was defined as nonspecific uptake (0%) and subtracted from all values.
(§3) Uptake is expressed as a percentage of control (uptake in the absence of test compound). Data represent mean ± SD of ≥3 independent experiments.

human OCT2 [2] = target: T4, human OCT2 (Homo sapiens, UniProt O15244); test: cell-based
T4 sequence (O15244 1-555): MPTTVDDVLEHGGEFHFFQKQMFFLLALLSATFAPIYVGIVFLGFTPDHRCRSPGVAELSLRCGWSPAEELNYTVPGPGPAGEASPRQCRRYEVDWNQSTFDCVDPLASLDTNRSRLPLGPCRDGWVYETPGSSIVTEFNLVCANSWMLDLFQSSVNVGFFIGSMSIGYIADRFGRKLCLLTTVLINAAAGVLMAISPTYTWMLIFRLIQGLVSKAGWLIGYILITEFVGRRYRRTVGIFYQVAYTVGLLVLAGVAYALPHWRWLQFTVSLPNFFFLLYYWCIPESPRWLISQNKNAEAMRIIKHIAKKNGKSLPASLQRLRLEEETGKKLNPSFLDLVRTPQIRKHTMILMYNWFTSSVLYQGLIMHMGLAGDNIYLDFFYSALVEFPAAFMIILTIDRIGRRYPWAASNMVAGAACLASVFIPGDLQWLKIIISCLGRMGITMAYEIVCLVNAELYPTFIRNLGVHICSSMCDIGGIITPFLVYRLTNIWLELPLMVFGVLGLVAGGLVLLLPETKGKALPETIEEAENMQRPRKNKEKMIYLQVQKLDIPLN
Protocol: as §1, §2, §3

human OCT3 [3] = target: T5, human OCT3 (Homo sapiens, UniProt O75751); test: Uptake inhibition assay, OCT3; assay type: cell-based; conditions: HEK293 cells expressing human OCT3, 0.05 µM [3H]MPP+
T5 construct: expressed in transfected cells
T5 sequence (O75751 1-556): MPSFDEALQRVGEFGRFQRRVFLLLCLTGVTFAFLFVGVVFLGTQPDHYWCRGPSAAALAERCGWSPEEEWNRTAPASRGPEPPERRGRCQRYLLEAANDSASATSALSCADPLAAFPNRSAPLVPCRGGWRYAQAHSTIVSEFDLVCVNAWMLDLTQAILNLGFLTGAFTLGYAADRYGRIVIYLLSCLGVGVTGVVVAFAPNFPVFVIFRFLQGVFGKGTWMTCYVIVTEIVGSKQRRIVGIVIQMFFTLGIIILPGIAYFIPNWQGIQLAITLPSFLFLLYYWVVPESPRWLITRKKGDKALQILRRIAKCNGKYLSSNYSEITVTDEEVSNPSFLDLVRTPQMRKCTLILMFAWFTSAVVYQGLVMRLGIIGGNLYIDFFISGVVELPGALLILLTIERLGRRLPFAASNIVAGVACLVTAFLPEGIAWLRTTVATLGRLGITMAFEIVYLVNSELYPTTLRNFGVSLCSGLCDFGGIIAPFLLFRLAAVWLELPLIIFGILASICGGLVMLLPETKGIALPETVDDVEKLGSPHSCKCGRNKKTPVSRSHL
Protocol: as §1, §2, §3

human OCT3 [4] = target: T5, human OCT3; parameters: method as in Angenoorth et al., 2021; conditions: ref Angenoorth et al., 2021; cited from earlier work
human OCT1 [5] = target: T3, human OCT1; parameters: expressed in transfected cells; method as in Angenoorth et al., 2021; conditions: ref Angenoorth et al., 2021; cited from earlier work
human OCT2 [6] = target: T4, human OCT2; parameters: expressed in transfected cells; method as in Angenoorth et al., 2021; conditions: ref Angenoorth et al., 2021; cited from earlier work
[7] = HEK293 cells expressing human NET, 0.02 µM [3H]MPP+, given as a range, read-out: IC50 of NET uptake inhibition
[8] = HEK293 cells expressing human NET, 0.02 µM [3H]MPP+

T1 sequence (Q01959 whole entry): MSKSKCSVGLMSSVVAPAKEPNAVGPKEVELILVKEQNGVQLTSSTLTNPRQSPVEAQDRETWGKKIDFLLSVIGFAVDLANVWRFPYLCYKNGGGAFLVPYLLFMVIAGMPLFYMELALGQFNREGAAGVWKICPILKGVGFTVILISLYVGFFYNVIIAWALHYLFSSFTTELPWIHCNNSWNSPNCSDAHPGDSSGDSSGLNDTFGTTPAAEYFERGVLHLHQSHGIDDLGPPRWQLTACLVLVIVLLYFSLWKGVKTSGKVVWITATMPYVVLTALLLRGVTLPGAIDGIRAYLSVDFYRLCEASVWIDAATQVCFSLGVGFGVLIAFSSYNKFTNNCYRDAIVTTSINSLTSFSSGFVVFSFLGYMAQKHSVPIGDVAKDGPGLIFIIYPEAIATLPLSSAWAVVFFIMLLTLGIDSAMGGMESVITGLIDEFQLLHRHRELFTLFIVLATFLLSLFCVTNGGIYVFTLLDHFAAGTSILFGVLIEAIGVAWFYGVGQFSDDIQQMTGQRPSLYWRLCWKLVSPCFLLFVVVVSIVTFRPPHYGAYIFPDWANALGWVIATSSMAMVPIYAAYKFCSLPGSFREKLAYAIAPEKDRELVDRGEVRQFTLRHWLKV

Row | SMILES | pIC50 (human DAT) | Inhibition of OCT3-mediated transport (in words) (human OCT3 [3]) | Inhibitory activity at DAT (in words) (human DAT) | Inhibitory activity at NET (in words) (human NET; [8]) | also measured
1 | CCN(CC)CCOC(=O)c1ccc(N)cc1 [procaine] | 4.54 to 4.82 | none of the compounds—cocaine, procaine, or lidocaine—substantially inhibited OCT3-mediated transport except at near-millimolar concentrations | – | – | pIC50 (human NET; [7]): 3.84 to 4.06; pIC50 (human OCT1 [1]): 5.05 to 5.30; pIC50 (human OCT2 [2]): 4.62 to 5.00
2 | c1ccc([C@H]2CN3CCSC3=N2)cc1 [levamisole] | 3.50 to 4.09 | – | – | – | pIC50 (human NET): 3.97 to 4.22
3 | CC(=O)Nc1ccc(O)cc1 [paracetamol] | – | – | no measurable inhibitory activity | no measurable inhibitory activity | –
4 | CCOC(=O)c1ccc(N)cc1 [benzocaine, Ethyl 4-Aminobenzoate] | 4.57 to 4.77 | failed to inhibit | – | – | pIC50 (human NET; [7]): 3.35 to 3.67; Inhibition of [3H]MPP+ transport via OCT1 (in words) (human OCT1 [1]; HEK293 cells expressing human OCT1, 0.05 µM [3H]MPP+): failed to inhibit; Inhibition of [3H]MPP+ transport via OCT2 (in words) (human OCT2 [2]; HEK293 cells expressing human OCT2, 0.05 µM [3H]MPP+): failed to inhibit
5 | COC(=O)[C@H]1[C@@H](OC(=O)c2ccccc2)C[C@@H]2CC[C@H]1N2C [cocaine] | – | none of the compounds—cocaine, procaine, or lidocaine—substantially inhibited OCT3-mediated transport except at near-millimolar concentrations | – | – | pIC50 (human OCT1 [1]): 4.24 to 4.72; pIC50 (human OCT2 [2]): 4.38 to 4.82; Inhibition of OCT3 (in words), previously reported (human OCT3 [4]): but not OCT3; Inhibition of OCT1 (in words), previously reported (human OCT1 [5]): inhibits OCT1 and OCT2; Inhibition of OCT2 (in words), previously reported (human OCT2 [6]): inhibits OCT1 and OCT2
6 | CCOc1ccc(NC(C)=O)cc1 [phenacetin] | – | – | no measurable inhibitory activity | no measurable inhibitory activity | –
7 | CCN(CC)CC(=O)Nc1c(C)cccc1C [lidocaine] | – | – | no inhibitory potency | no inhibitory potency | –
